Publication PMC12462901 (Journal of the American Chemical Society, 2025)
Like-named read-outs stand apart in the source and are kept apart here.

What was measured:
logD = type: physicochemical; conditions: relative to parent atuveciclib
[1] = test system: Madin-Darby canine kidney (MDCK) cells; experiment: permeability in MDCK cells; type: in vitro ADME; conditions: compared to the parent compound
kinetic solubility = type: physicochemical; conditions: compared to atuveciclib
[2] = test system: HeLa human cervical carcinoma cells (CCL-2); experiment: cellular potency in HeLa cells; type: cell-based; conditions: read-out: IC50 value (cellular potency)

logD (logD)	IC50 ([2]; HeLa human cervical carcinoma cells (CCL-2)) [nM]	IC50 ([2]; Homo sapiens, HeLa) [nM]	Compound	permeability [1]	kinetic solubility (kinetic solubility)
increase in logD	700	–	COc1cc(F)ccc1-c1ncnc(Nc2cccc(C[S@@](C)(=O)=NC3CCC3)c2)n1 [Compound 57]	enhanced permeability compared to the parent compound	notable improvement compared to atuveciclib
–	–	300	COc1cc(F)ccc1-c1ncnc(Nc2cccc(C[S@](C)(=N)=O)c2)n1 [atuveciclib, reference compound]	–	–
